Data on 32 molecules can be found in patent US8785468B2, “Phenylalanine amide derivatives useful for treating insulin-related diseases and conditions” (Amgen Inc., priority 2009, dated 2014).

Counter-ions that a name gives are not always drawn.

The assay concerns the target T1, human receptor found in pancreatic islet cells (Homo sapiens, UniProt Q7Z601).
T1 sequence (Q7Z601 1-462): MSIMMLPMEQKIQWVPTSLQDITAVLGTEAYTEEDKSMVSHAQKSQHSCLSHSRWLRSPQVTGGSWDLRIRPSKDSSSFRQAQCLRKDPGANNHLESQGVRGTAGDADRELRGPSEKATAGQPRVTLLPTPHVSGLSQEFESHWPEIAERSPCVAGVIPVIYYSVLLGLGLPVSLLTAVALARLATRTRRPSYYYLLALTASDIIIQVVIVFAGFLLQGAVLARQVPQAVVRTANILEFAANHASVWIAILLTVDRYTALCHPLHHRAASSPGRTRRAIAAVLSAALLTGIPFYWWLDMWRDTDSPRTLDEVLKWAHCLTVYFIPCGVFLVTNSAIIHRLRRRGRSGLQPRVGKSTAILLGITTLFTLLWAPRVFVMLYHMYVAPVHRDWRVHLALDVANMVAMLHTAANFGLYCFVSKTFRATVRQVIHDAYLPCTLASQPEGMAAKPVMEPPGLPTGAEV
The assay is described as follows: Activation of intracellular IP3 signaling in transfected cells (Activation Assay). Format: cell-based. As to conditions: calculated from IP3 concentration measurements in cells transfected with the human receptor. The method, then: Table 12 provides exemplary compounds that were prepared and assessed, following protocols known to those of skilled in the art, for activation of intracellular inositol trisphosphate (IP3) signaling pathways that lead to elevation of intracellular calcium concentration. EC50 values provided in Table 12 were calculated from IP3 concentration measurements in cells transfected with a human receptor found in pancreatic islet cells, inter alia.
On to `Cn1cc(-c2cccc(NC(=O)[C@H](Cc3ccccc3)NCc3cscn3)c2)cn1` [Example 27, (2S)—N-(3-(1-Methyl-1H-pyrazol-4-yl)phenyl)-3-phenyl-2-(thiazol-4-ylmethylamino)propanamide], for which the EC50 was 100 to 1000 nM.
In the case of `CCn1nc(-c2ccnc(C)c2)cc1NC(=O)[C@H](Cc1ccc(F)cc1)NCc1cscn1` [Example 28, (2S)—N-(1-ethyl-3-(2-methylpyridin-4-yl)-1H-pyrazol-5-yl)-3-(4-fluorophenyl)-2-(thiazol-4-ylmethylamino)propanamide dihydrochloride] it was less than 50 nM; in that of `CC(C)n1nc(-c2ccncc2)cc1NC(=O)[C@H](Cc1ccc(Cl)cc1)NCC(=O)O` [Example 29, (S)-2-(3-(4-Chlorophenyl)-1-(1-isopropyl-3-(pyridin-4-yl)-1H-pyrazol-5-ylamino)-1-oxopropan-2-ylamino)acetic acid], 50 to 100 nM.
In the case of `CNc1cc(-c2cc(NC(=O)[C@H](Cc3ccc(F)cc3)NCc3cscn3)n(CCO)n2)ccn1` [Example 30, (2S)-3-(4-Fluorophenyl)-N-(1-(2-hydroxyethyl)-3-(2-(methylamino)pyridin-4-yl)-1H-pyrazol-5-yl)-2-(thiazol-4-ylmethylamino)propanamide] it was 50 to 100 nM; in that of `CCn1nc(-c2ccnc(NC)c2)cc1NC(=O)[C@H](Cc1ccc(F)cc1)NCc1cscn1` [Example 31.1, (2S)—N-(1-Ethyl-3-(2-(methylamino)pyridin-4-yl)-1H-pyrazol-5-yl)-3-(4-fluorophenyl)-2-(thiazol-4-ylmethylamino)propanamide], less than 50 nM; in that of `CCn1nc(-c2ccnc(NC)c2)cc1NC(=O)[C@H](Cc1ccc(F)cc1)NCc1c[nH]nn1` [Example 31.2, (2S)-2-((1H-1,2,3-triazol-4-yl)methylamino)-N-(1-ethyl-3-(2-(methylamino)pyridin-4-yl)-1H-pyrazol-5-yl)-3-(4-fluorophenyl)propanamide], less than 50 nM.
With `CCn1nc(-c2ccnc(NC)c2)cc1NC(=O)[C@H](Cc1ccc(F)cc1)NCc1ccc(F)cn1` [Example 31.3, (2S)—N-(1-Ethyl-3-(2-(methylamino)pyridin-4-yl)-1H-pyrazol-5-yl)-3-(4-fluorophenyl)-2-((5-fluoropyridin-2-yl)methylamino)propanamide] the figure was less than 50 nM; with `CCn1nc(-c2ccnc(NC)c2)cc1NC(=O)[C@H](Cc1ccc(F)cc1)NCC(=O)O` [Example 31.4, 2-((S)-1-(1-Ethyl-3-(2-(methylamino)pyridin-4-yl)-1H-pyrazol-5-ylamino)-3-(4-fluorophenyl)-1-oxopropan-2-ylamino)acetic acid], less than 50 nM.
Turning to `O=C(Nc1cccc(-c2cn[nH]c2)c1)[C@H](Cc1ccccc1)NCc1cscn1` [Example 33, (2S)—N-(3-(1H-Pyrazol-4-yl)phenyl)-3-phenyl-2-(thiazol-4-ylmethylamino)propanamide], the EC50 was 100 to 1000 nM.
Turning to `O=C(Nc1cccc(-c2ccncc2)c1)[C@H](Cc1ccccc1)NCCC1CCOCC1` [Example 34.1, (S)-3-Phenyl-N-(3-(pyridin-4-yl)phenyl)-2-(2-(tetrahydro-2H-pyran-4-yl)ethylamino)propanamide], the EC50 was 100 to 1000 nM.
As for `N[C@@H](Cc1ccccc1)C(=O)Nc1cccc(-c2ccncc2)c1` [Example 34.1.D, (S)-2-Amino-3-phenyl-N-(3-(pyridin-4-yl)phenyl)propanamide], the EC50 was 1000 to 10000 nM.
Regarding `CC(N[C@@H](Cc1ccccc1)C(=O)Nc1cccc(-c2ccncc2)c1)c1ccccn1` (stereo partly drawn) [Example 34.2, (2S)-3-Phenyl-2-(1-(pyridin-2-yl)ethylamino)-N-(3-(pyridin-4-yl)phenyl)propanamide], the concentration giving a half-maximal response (EC50) was 100 to 1000 nM.
For the molecule `CCC(N[C@@H](Cc1ccccc1)C(=O)Nc1cccc(-c2ccncc2)c1)c1ccccn1` (stereo partly drawn) [Example 34.3, (2S)-3-Phenyl-2-(1-(pyridin-2-yl)propylamino)-N-(3-(pyridin-4-yl)phenyl)propanamide], the EC50 was 50 to 100 nM.
With `CC(C)(C)OC(=O)CN[C@@H](Cc1ccc(F)cc1)C(=O)Nc1cccc(-c2ccncc2)c1` [Example 34.4], the half-maximal effective concentration (EC50) was 50 to 100 nM.
In the case of `O=C(Nc1cccc(-c2ccncc2)c1)[C@@H](Cc1ccccc1)NCc1cscn1` [Example 34.5, (R)-3-Phenyl-N-(3-(pyridin-4-yl)phenyl)-2-(thiazol-4-ylmethylamino)propanamide trifluoroacetate] it was 1000 to 10000 nM; in that of `O=C(Nc1cccc(-c2ccncc2)c1)[C@@H](Cc1ccccc1)NCc1cncs1` [Example 34.6, (R)-3-Phenyl-N-(3-(pyridin-4-yl)phenyl)-2-(thiazol-5-ylmethylamino)propanamide trifluoroacetate], 1000 to 10000 nM; in that of `O=C(Nc1cccc(-c2ccncc2)c1)[C@@H](Cc1ccccc1)NCc1nccs1` [Example 34.7, (R)-3-Phenyl-N-(3-(pyridin-4-yl)phenyl)-2-(thiazol-2-ylmethylamino)propanamide trifluoroacetate], 1000 to 10000 nM.
With `CN(C(=O)[C@H](Cc1ccccc1)NCc1cscn1)c1cccc(-c2ccncc2)c1` [Example 34.8, (S)—N-Methyl-3-phenyl-N-(3-(pyridin-4-yl)phenyl)-2-(thiazol-4-ylmethylamino)propanamide] the figure was 1000 to 10000 nM.
Regarding `CC(N[C@@H](Cc1ccccc1)C(=O)Nc1cccc(-c2ccncc2)c1)c1cnccn1` (stereo partly drawn) [Example 34.10, (2S)-3-Phenyl-2-(1-(pyrazin-2-yl)ethylamino)-N-(3-(pyridin-4-yl)phenyl)propanamide], the EC50 is 100 to 1000 nM.
With `O=C(Nc1cccc(-c2ccncc2)c1)[C@H](Cc1ccccc1)NCC1CCOC1` (stereo partly drawn) [Example 34.11, (2S)-3-Phenyl-N-(3-(pyridin-4-yl)phenyl)-2-((tetrahydrofuran-3-yl)methylamino)propanamide TFA salt] the figure was 1000 to 10000 nM; with `O=C(Nc1cccc(-c2ccncc2)c1)[C@H](Cc1cccc(F)c1)NCC1CC1` [Example 34.12, (S)-2-(Cyclopropylmethylamino)-3-(3-fluorophenyl)-N-(3-(pyridin-4-yl)phenyl)propanamide], 100 to 1000 nM.
In the case of `CC(C)N[C@@H](Cc1ccccc1)C(=O)Nc1cccc(-c2ccncc2)c1` [Example 34.13, (S)-2-(Isopropylamino)-3-phenyl-N-(3-(pyridin-4-yl)phenyl)propanamide] it was 1000 to 10000 nM; in that of `O=C(Nc1cccc(-c2ccncc2)c1)[C@H](Cc1ccccc1)NCc1cscn1` [Example 34.14, (S)-3-Phenyl-N-(3-(pyridin-4-yl)phenyl)-2-(thiazol-4-ylmethylamino)propanamide], 50 to 100 nM; in that of `O=C(Nc1cccc(-c2ccncc2)c1)[C@H](Cc1ccccc1)NCc1cnco1` [Example 34.15, (S)-2-(Oxazol-5-ylmethylamino)-3-phenyl-N-(3-(pyridin-4-yl)phenyl)propanamide], 1000 to 10000 nM.
As for `O=C(Nc1cccc(-c2ccncc2)c1)[C@H](Cc1ccccc1)NCc1nccs1` [Example 34.16, (S)-3-Phenyl-N-(3-(pyridin-4-yl)phenyl)-2-(thiazol-2-ylmethylamino)propanamide], the EC50 is 100 to 1000 nM.
With `O=C(Nc1cccc(-c2ccncc2)c1)[C@H](Cc1ccccc1)NCc1cncs1` [Example 34.17, (S)-3-Phenyl-N-(3-(pyridin-4-yl)phenyl)-2-(thiazol-5-ylmethylamino)propanamide] the figure was 100 to 1000 nM.
With `Cc1ncc(CN[C@@H](Cc2ccccc2)C(=O)Nc2cccc(-c3ccncc3)c2)s1` [Example 34.18, (S)-2-((2-Methylthiazol-5-yl)methylamino)-3-phenyl-N-(3-(pyridin-4-yl)phenyl)propanamide] the figure was 100 to 1000 nM.
With `CC(N[C@@H](Cc1ccccc1)C(=O)Nc1cccc(-c2ccncc2)c1)c1cscn1` (stereo partly drawn) [Example 34.19, (2S)-3-Phenyl-N-(3-(pyridin-4-yl)phenyl)-2-(1-(thiazol-4-yl)ethylamino)propanamide] the figure was 100 to 1000 nM; with `Cn1cnnc1CN[C@@H](Cc1ccccc1)C(=O)Nc1cccc(-c2ccncc2)c1` [Example 34.20, (S)-2-((4-Methyl-4H-1,2,4-triazol-3-yl)methylamino)-3-phenyl-N-(3-(pyridin-4-yl)phenyl)propanamide], 100 to 1000 nM; with `O=C(Nc1cccc(-c2ccncc2F)c1)[C@H](Cc1ccccc1)NCc1cscn1` [Example 34.21, (2S)—N-(3-(3-Fluoropyridin-4-yl)phenyl)-3-phenyl-2-(thiazol-4-ylmethylamino)propanamide TFA salt], 1000 to 10000 nM.
For `COc1ncc(-c2ccncc2)cc1NC(=O)[C@H](Cc1ccccc1)N[C@@H](C)c1ccccn1` [Example 35.2, (S)—N-(2-Methoxy-5-(pyridin-4-yl)pyridin-3-yl)-3-phenyl-2-((S)-1-(pyridin-2-yl)ethylamino)propanamide], the EC50 is 100 to 1000 nM.
Take `COc1ncc(-c2ccncc2)cc1NC(=O)[C@H](Cc1ccccc1)NC1(c2csc(C)n2)CC1` [Example 35.3, (S)—N-(2-Methoxy-5-(pyridin-4-yl)pyridin-3-yl)-2-(1-(2-methylthiazol-4-yl)cyclopropylamino)-3-phenylpropanamide]: the EC50 is 50 to 100 nM.

Usually EC50 stands for the concentration at which the effect is half-maximal.
